Experimental data as given in patent US20260297065A1, “AROMATIC SUBSTITUENT-CONTAINING (HETERO) ARYL-IMIDAZOLE COMPOUND, AND PREPARATION METHOD THEREFOR AND USE THEREOF” (OPEN SOURCE THERAPEUTICS, priority 2022, published 2026).

Molecular target: T1, soluble epoxide hydrolase (sEH) (Homo sapiens, UniProt P34913)
T1 sequence (P34913 1-555): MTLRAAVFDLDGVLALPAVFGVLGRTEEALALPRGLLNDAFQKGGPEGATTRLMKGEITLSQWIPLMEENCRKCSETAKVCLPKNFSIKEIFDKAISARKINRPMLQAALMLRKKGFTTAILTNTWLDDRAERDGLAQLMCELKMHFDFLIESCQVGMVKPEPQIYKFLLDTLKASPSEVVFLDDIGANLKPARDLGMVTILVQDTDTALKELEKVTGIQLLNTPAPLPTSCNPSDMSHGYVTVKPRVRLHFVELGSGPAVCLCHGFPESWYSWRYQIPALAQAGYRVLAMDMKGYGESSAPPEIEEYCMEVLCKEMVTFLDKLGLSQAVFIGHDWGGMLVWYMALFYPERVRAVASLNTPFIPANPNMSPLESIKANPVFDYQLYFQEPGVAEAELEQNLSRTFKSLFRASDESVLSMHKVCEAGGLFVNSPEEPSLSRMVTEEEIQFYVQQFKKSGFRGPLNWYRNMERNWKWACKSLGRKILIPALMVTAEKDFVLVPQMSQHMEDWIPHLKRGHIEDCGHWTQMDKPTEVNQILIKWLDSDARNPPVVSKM
Experiment: in vitro biochemical activity test, sEH enzyme inhibition with EET substrate (LC-MS)
Conditions: 90 min pre-incubation at room temperature, 60 min reaction
Protocol: This example relates to the relationship between the structure and activity of (hetero)aryl imidazole compounds containing an aromatic substituent. Specifically, the biochemical activity of the (hetero)aryl imidazole compounds containing an aromatic substituent described in Example 1 as sEH enzyme inhibitors was evaluated by in vitro activity test experiments.
The experimental procedures for evaluating in vitro biochemical activity were described below.
The substrate used in the evaluation experiment was epoxyeicosatrienoic acid (EET). The solutions used in the evaluation experiments were Bis/Tris HCl 25 mM pH 7.0, Bis/Tris HCl 25 mM pH 7.0 containing 0.1 mg/mL BSA was used as buffer A, and Bis/Tris HCl 25 mM pH 7.0 containing 36.3 mM ZnSO4 was used as buffer B.
The specific steps of the evaluation experiment were as follows. 79 μL of buffer A was added to each well in a black 96-well plate and then 1 μL solution of the aromatic substituent-containing (hetero)aryl imidazole compound was added. Then, 10 μL sEH (1 μM) buffer A solution was added to the wells. After pre-incubation at room temperature for 90 min, 10 μL EET (10 μM) buffer A solution was added to trigger the reaction. After the mixture was allowed to react […] for 60 min, 15 μL buffer B and 180 μL acetonitrile were added to quench the reaction, followed by high-speed centrifugation and filtration for later use.
LC-MS was used to detect the concentration of EET in the samples. The final IC50 was calculated based on three independent experiments using Graphpad Prism software.

SMILES	IC50 [nM]
COc1ccc(-c2nc3cc(-c4ccncc4Cl)c(F)cc3[nH]2)cc1F [Compound 2, 6-(3-chloropyridin-4-yl)-5-fluoro-2-(3-fluoro-4-meth-oxyphenyl)-1H-benzo[d] imidazole]	11
CC(C)n1nccc1-c1cc2nc(-c3ccc(S(=O)(=O)N(C)C)cc3)[nH]c2c(F)c1F [Compound 25, 4-(4,5-difluoro-6-(1-isopropyl-1H-pyrazol-5-yl)-1H-benzo[d]imidazol-2-yl)-N,N-dimethyl-benzenesulfonamide]	0.045
Cc1[nH]c(=O)ccc1-c1cc2nc(-c3ccc(S(=O)(=O)N(C)C)cc3)[nH]c2cc1F [Compound 41, 4-(5-fluoro-6-(2-methyl-6-oxo-1,6-dihydropyridin-3-yl)-1H-benzo[d]imidazol-2-yl)-N,N-dimethylbenzenesulfon-amide]	0.23
Cc1cnccc1-c1cc2nc(-c3ccc(C(F)F)cc3)[nH]c2cc1F [Compound 11, 2-(4-(difluoromethyl)phenyl)-5-fluoro-6-(3-methylpyridin-4-yl)-1H-benzo[d]imidazole]	0.14
Cc1nc(N)ncc1-c1cc2nc(-c3ccc(S(=O)(=O)N(C)C)cc3)[nH]c2c(Cl)c1F [Compound 35, 4-(6-(2-amino-4-methylpyr-imid-5-yl)-4-chloro-5-fluoro-1H-benzo[d]imidazol-2-yl)-N,N-dimethylbenzenesulfon-amide]	0.045
CN(C)S(=O)(=O)c1ccc(-c2nc3cc(-c4ccncc4Cl)c(F)cc3[nH]2)cc1 [Compound 1, 4-(6-(3-chloropyridin-4-yl)-5-fluoro-1H-benzo[d]imidazol-2-yl)-N,N-dimethylbenzene-sulfonamide]	0.11
Cc1nn(S(C)(=O)=O)c(C)c1-c1cc2nc(-c3ccc(C(F)(F)F)cc3)[nH]c2cc1F [Compound 24, 6-(3,5-dimethyl-1-(methyl-sulfonyl)-1H-pyrazo1-4-yl)-5-fluoro-2-(4-(trifluoromethyl)-phenyl)-1H-benzo[d]imidazole]	0.2
Cc1ncc(-c2cc3nc(-c4ccc(S(=O)(=O)N(C)C)cc4)[nH]c3cc2Cl)c(Cl)n1 [Compound 30, 4-(5-chloro-6-(4-chloro-2-methylpyrimid-5-yl)-1H-benzo [d]imidazol-2-yl)-N,N-dimeth-ylbenzenesulfonamide]	0.1
CN(C)S(=O)(=O)c1ccc(-c2nc3cc(-c4cncnc4C(F)(F)F)c(F)cc3[nH]2)cc1 [Compound 33, 4-(5-fluoro-6-(4-(trifluoro-methyl)pyrimid-5-yl)-1H-benzo [d]imidazol-2-yl)-N,N-dimeth-ylbenzenesulfonamide]	0.15
Cc1nc(N)ncc1-c1cc2nc(-c3ccc(S(=O)(=O)N(C)C)cc3)[nH]c2c(F)c1F [Compound 27, 4-(6-(2-amino-4-methylpyr-imid-5-yl)-4,5-difluoro-1H-benzo[d]imidazol-2-yl)-N,N-dimethylbenzenesulfonamide]	0.056
COc1cc(C)c(-c2cc3nc(-c4ccc(S(=O)(=O)N(C)C)cc4)[nH]c3cc2F)cn1 [Compound 39, 4-(5-fluoro-6-(6-methoxy-4-methylpyridin-3-yl)-1H-benzo [d]imidazol-2-yl)-N,N-dimeth-ylbenzenesulfonamide]	0.088

Second part, the molecule after the results:

IC50 [nM]	SMILES
2.21	CS(=O)(=O)c1ccc(-c2nc3cc(-c4cnc(N5CCOCC5)nc4)c(F)cc3[nH]2)cc1 [Compound 20, 4-(5-(5-fluoro-2-(4-(methyl-sulfonyl)phenyl)-1H-benzo[d]imidazol-6-yl)pyrimidine-2-yl)morpholine]
0.063	CN(C)S(=O)(=O)c1ccc(-c2nc3cc(-c4cnc(N)cc4Cl)c(F)cc3[nH]2)cc1 [Compound 40, 4-(6-(6-amino-4-chloropyr-idin-3-yl)-5-fluoro-1H-benzo [d]imidazol-2-yl)-N,N-dimeth-ylbenzenesuIfonamide]
0.058	Cc1ccc(-c2cc3nc(-c4ccc(C(F)(F)F)cc4)[nH]c3cc2F)c(Cl)n1 [Compound 12, 6-(2-chloro-6-methylpyridin-3-yl)-5-fluoro-2-(4-(trifluoro-methyl)phenyl)-1H-benzo[d] imidazole]
0.77	CC(C)n1ccnc1-c1cc2[nH]c(-c3ccc(C(F)(F)F)cc3)nc2c(F)c1F [Compound 72, 2-(4-(trifluoromethyl)phenyl)-6-(1-isopropyl-1H-imidazol-2-yl)-4,5-difluoro-1H-benzo[d] imidazole]
0.29	CC(=O)n1nc(C)c(-c2cc3nc(-c4ccc(C(F)(F)F)cc4)[nH]c3cc2F)c1C [Compound 23, 1-(4-(6-fluoro-2-(4-(trifluoro-methyl)phenyl)-1H-benzo[d]imidazol-5-yl)-3,5-dimethyl-1H-pyrazol-1-yl)ethan-1-one]
0.4	Cc1cc(-c2cc3nc(-c4ccc(C(F)(F)F)cc4)[nH]c3cc2F)n(C)n1 [Compound 13, 6-(1,3-dimethyl-1H-pyrazol-5-yl)-5-fluoro-2-(4-(trifluoro-methyl)phenyl)-1H-benzo[d] imidazole]
0.081	Fc1c(-c2ccnn2C2CC2)cc2[nH]c(-c3ccc(C(F)(F)F)cc3)nc2c1F [Compound 75, 2-(4-(trifluoromethyl)phenyl)-6-(1-cyclopropyl-1H-pyrazol-5-yl)-4,5-difluoro-1H-benzo [d]imidazole]
0.13	COc1nc(C)ncc1-c1cc2nc(-c3ccc(S(=O)(=O)N(C)C)cc3)[nH]c2cc1F [Compound 32, 4-(5-fluoro-6-(4-methoxy-2-methylpyrimid-5-yl)-1H-benzo[d]imidazol-2-yl)-N,N-dimethylbenzenesulfonamide]
7.6	Cc1ccc(-c2cc3nc(-c4ccc(C(=O)N5CCC[C@@H](C(N)=O)C5)cc4)[nH]c3cc2F)c(Cl)n1 [Compound 3, (R)-1-(4-(6-(2-chloro-6-meth-ylpyridin-3-yl)-5-fluoro-1H-benzo[d]imidazol-2-yl)benzo-yl)piperidine-3-carboxamide]
0.99	Cc1ncc(-c2cc3nc(-c4ccc(S(C)(=O)=O)cc4)[nH]c3cc2Cl)c(Cl)n1 [Compound 4, 5-chloro-6-(4-chloro-2-meth-ylpyrimid-5-yl)-2-(4-(methyl-sulfonyl)phenyl)-1H-benzo[d] imidazole]
4.8	CN1CCN(c2ncc(-c3cc4nc(-c5ccc(C(F)(F)F)cc5)[nH]c4cc3F)cn2)CC1 [Compound 17, 5-fluoro-6-(2-(4-methylpiper-azine-1-yl)pyrimid-5-yl)-2-(4-(trifluoromethyl)phenyl)-1H-benzo[d]imidazole]
0.15	Nc1ncc(-c2cc3[nH]c(-c4ccc(F)c(C(F)(F)F)c4)nc3c(F)c2F)c(C(F)F)n1 [Compound 81, 5-(2-(3-(trifluoromethyl)-4-fluorophenyl)-4,5-difluoro-1H-benzo[d]imidazol-6-yl)-4-(difluoromethyl)pyrimidine-2-amine]

Molecular target: T1, soluble epoxide hydrolase (sEH)
Experiment: PHOME assay activity test, sEH enzyme inhibition (fluorescence)
Type: biochemical
Conditions: PHOME 5 μM, pH 7.0; 10 min pre-incubation; test compound concentration range 20 nM-0.082 nM
Protocol: This example relates to the relationship between the structure and activity of (hetero)aryl imidazole compounds containing an aromatic substituent. Specifically, the biochemical activity of the (hetero)aryl imidazole compounds containing an aromatic substituent described herein as sEH enzyme inhibitors was evaluated by PHOME assay activity test experiment. The synthesis of the substrates and the test methods required for this test were all based on known literature reports (Analytical Biochemistry 2005, 343, 66-75).
The sEH enzyme activity inhibition experiment was performed in a low binding 96-well plate. The reaction system was 100 μL 25 mM Bis-Tris, pH 7.0, 0.1 mg/mL BSA buffer. The experimental steps of PHOME assay activity test were as follows.
First, a sEH enzyme solution with a final concentration of […] was mixed with compounds of different concentrations (test compound concentration range 20 nM-0.082 nM), and then pre-incubated on a shaker at room temperature for 10 min. The reaction was triggered by adding Phome fluorescent substrate at a final concentration of 5 μM and immediately placed in a Perkin Elmer microplate reader for dynamic monitoring for 1 hour at an excitation wavelength of 330 nm and an emission wavelength of 465 nm, with fluorescence readings at intervals of 1 minute. Graphpad Prism 9.0 software was used to calculate the slope of the fluorescence value increase in each well within 20 minutes, and the slope was used to calibrate the enzyme activity to calculate the inhibition rate of the compound on sEH enzyme activity under different concentration conditions. Finally, Graphpad Prism 9 was used to plot and calculate IC50 values.
The inhibitory activity IC50 values of some compounds against soluble epoxide hydrolase obtained by PHOME assay activity evaluation experiment are shown in Table 4.

IC50 [nM]	SMILES
0.61	Fc1c(-c2cnc(NC3COC3)nc2C(F)F)cc2[nH]c(-c3ccc(C(F)(F)F)cc3)nc2c1F [Compound 91, 5-(2-(4-(trifluoromethyl)phen-yl)-4,5-difluoro-1H-benzo[d]imidazol-6-yl)-4-(difluoro-methyl)-N-(oxetan-3-yl)pyr-imidine-2-amine]
